How the values were obtained:
[1] = system: FeCl3-induced femoral artery thrombosis; assay: FeCl3-induced femoral artery thrombosis in rabbits, intravenous maintenance administration; type: in vivo, rabbit
Method: (§1) 2. Grouping and administration: 10 rabbits were randomly divided into 3 groups, 2 to 3 rabbits per group. 1) Sham operation group (NS): Intravenous injection of the same volume of physiological saline, with the same operation method as above; 2) polypeptide 2 administration group: 8.0 mg/kg+20.0 mg/kg/h; 3) positive control enoxaparin group: 50 U/kg+150 U/kg/h. According to the body weight in kilograms of the rabbits, the first dose of the drug to be tested was dissolved in 2 mL of physiological saline for single bolus injection. The maintaining dose was dissolved in 9 ml of physiological saline, and placed in a double-channel micro-injection pump, which was dripped off within 90 minutes at a dripping speed of […]. The sham operation group was administered with the same volume of physiological saline.
3.1 Surgery preparation of rabbits: Rabbits were sent to the laboratory for accommodation for one day, and then screened at first. Blood samples were taken from arteries within ears, which were subjected to blood routine analysis and APTT assay, and the rabbits with normal blood hemateikon and APTT between 16s to 28s were selected for experiments. The rabbits to be tested were fasted with free access to water for the night before the experiment. The rabbits were anesthetized with intravenous injection of 3% sodium pentobarbital solution at 1 ml/kg, fixed in the supine position, and then, the common carotid artery at one side, external jugular vein, femoral artery at one side, femoral vein, and forelimb vein at one side were isolated. The forelimb vein was subjected to intubation for administration; the left femoral vein was subjected to intubation for blood collection to determine the platelet aggregation rate; the femoral artery was used for the establishment of an arterial thrombosis model; the common carotid artery and external jugular vein were used for the establishment of an arterial and venous bypass thrombosis model.
3.2 Arterial thrombosis (AT) model: A small piece of a filter paper (1 cm×1.5 cm) absorbed with 50% FeCl3 solution was applied onto the right femoral artery while administration, below which a small piece of a plastic film (2.5 cm×2.0 cm) was placed to protect surrounding tissues. After 10 minutes, the filter paper was removed, and then, the blood vessels and local tissues were rinsed with warm physiological saline, and the covered blood vessels were cut off. The thrombus which attached to the blood vessel walls was peeled off to be weighed on a tin foil for its wet weight, and then kept overnight at room temperature and weighed for its dry weight.
3.3 Experimental Procedures: The femoral arteries in the […] and both sides in the rabbits were isolated and stabilized for 10 minutes before the administration was started. An AT model was established by covering the femoral artery with a 50% FeCl3 filter paper while administration, and the filter paper was removed after 15 minutes. Observation was continued for 120 min after administration until the experiment was completed.
4.4 Thrombus weight: After the experiment was completed, the segment of the blood vessels in which there had been thrombus formation was cut off, weighed for the wet weight, and then kept overnight at room temperature and weighed for the dry weight. The thrombosis inhibitory rate was calculated with a calculation equation as follows: […]

[2] = system: blood coagulation function; assay: TT in rabbits, intravenous maintenance administration; type: in vivo, rabbit
Method: as §1
4.2 Determination of blood coagulation function: Blood samples were taken and the blood function (PT, APTT) was determined at 0 min before administration, at points of 30 min, 60 min, 90 min after administration, and at points of 60 min, 120 min and 180 min after termination of administration, using a platelet-aggregation coagulation factor analyzer. Blood samples were centrifuged at 3510 rpm for 8 min to obtain platelet poor plasma (PPP). Reagent reconstruction and preservation were performed according to the operation requirements of the kit. Immediately after each blood sample was placed into a test cup and then added with PT, TT and APTT reagents, the test was started. After the test was completed, results were recorded.

[3] = system: experimental cerebral infarction; assay: Progressive ischemic stroke (MCAO suture method) in rats; type: in vivo, rat; conditions: for Cerebral index / Cerebral infarct volume ratio: 24 hours after the surgery
Method: 3.2 Grouping and administration: At 15 min after the mold was established, administration was started by jugular vein intubation, with the first dose and the maintenance dose for 60 min, […], while the model group was administered with physiological saline.
3.3 Experimental operation: Suture method (common carotid artery insertion method): the skin on the neck was cut open from a median incision thereon, and the common, external and internal carotid arteries were isolated therefrom. The common carotid artery was ligated at the heart-proximal end and the external carotid artery was ligated at the distal end. The distal end of the internal carotid artery was temporarily occluded with a small vascular clamp, and at the bifurcation of the common, external and internal carotid arteries, a thread for ligature was reserved. A small opening was cut with an eye scissor on the common carotid artery which was close to the internal carotid artery, to allow a certain degree of bending of the MCAO thread, which inserted into the internal carotid artery along the common carotid artery. During the thread insertion, the thread bended towards the direction of the operator, which was slowly pushed forward about 18 mm (from the bifurcation of the arteries), and terminated when a resistance was felt. The reserved thread was ligated at the bifurcation to fix the thread. At 15 min after the mold was established, the first dose was administered followed by maintenance dose for 60 min, and after the administration was finished, the wound in the neck was sutured in a conventional manner.
4.1 Neurobehavioral scores: Rats in both the groups were evaluated in terms of their neurobehavioral scores at 4, 8, and 24 hours after the surgery, with a Longa five-point quartering method as the standard: 0 point: no neurological defect; 1 point: adduction and failure to full extension of forelimbs on contralateral side when tail lifting; 2 points: rotation to the contralateral side; 3 points: toppling and falling to the contralateral side when walking; 4 points: failure to walk or coma. Cases with 1 to 4 points were classified as valid models.
4.2 observing infarct lesions and infarct volume by TTC staining: At 24 hours after the surgery, the animals were sacrificed and the brain was taken for TTC staining. The infarct volume was calculated by using a mapping software.
4.3 Cerebral index, cerebral water content: The rats in each group were rapidly decapitated 24 hours after the surgery and model establishment, and the whole brain was rapidly peeled off, which was then weighed for wet weight and used to calculate the brain index: Brain index=Brain wet weight/Body weight*100%

[4] = iv 8.0 + 20.0 (mg/kg + mg/kg/h)
[5] = iv 0.5 + 1.25 (mg/kg + mg/kg/h)

Substance: D-Phe Pro Arg Pro Gly Gly Gly Gly Asn Gly Asp Phe Glu Glu Ile Pro Glu Glu Tyr Leu Glu Ala Ala Ala Lys Cys Har Gly Asp Trp Pro Cys [Polypeptide 2]
- Thrombus inhibitory rate Dry weight [1, 4]: 84.9 ± 2.3%
- Thrombus inhibitory rate Wet weight [1, 4]: 75.6 ± 3.8%
- Thrombus weight Dry weight [1, 4]: 3.2 ± 2.0 mg
- Thrombus weight Wet weight [1, 4]: 14.2 ± 10.2 mg
- TT ([2]; iv 8.0 + 20.0 (mg/kg+mg/kg/h), Before administration): 26.8 ± 15.5 S
- TT ([2]; iv 8.0 + 20.0 (mg/kg+mg/kg/h), Termination 120 min): 150.6 ± 3.5 S
- TT ([2]; iv 8.0 + 20.0 (mg/kg+mg/kg/h), Termination 180 min): 28.2 ± 1.9 S
- neurological behaviors (neurobehavioral score, Longa) ([3]; iv 0.5 + 1.25 (mg/kg + mg/kg/h), 4 h after surgery): 1.00 ± 0.58
- neurological behaviors (neurobehavioral score, Longa) ([3]; iv 0.5 + 1.25 (mg/kg + mg/kg/h), 8 h after surgery): 1.00 ± 0.58
- neurological behaviors (neurobehavioral score, Longa) ([3]; iv 0.5 + 1.25 (mg/kg + mg/kg/h), 24 h after surgery): 1.00 ± 0.58
- Cerebral index [3, 5]: 0.6648 ± 0.0374 %
- Cerebral infarct volume ratio [3, 5]: 11.12 ± 6.56 %
- Cerebral infarct volume ratio ([3]; iv 0.5 + 1.25 (mg/kg + mg/kg/h), listed as polypeptide 2): 11.12±6.56%
- neurological behaviors (neurobehavioral score, Longa) ([3]; iv 1.0 + 2.5 (mg/kg + mg/kg/h), 4 h after surgery): 0.86 ± 1.07
- neurological behaviors (neurobehavioral score, Longa) ([3]; iv 1.0 + 2.5 (mg/kg + mg/kg/h), 8 h after surgery): 0.86 ± 0.90
- neurological behaviors (neurobehavioral score, Longa) ([3]; iv 1.0 + 2.5 (mg/kg + mg/kg/h), 24 h after surgery): 1.14 ± 0.69
- Cerebral index ([3]; iv 1.0 + 2.5 (mg/kg + mg/kg/h)): 0.6830 ± 0.0322%
- Cerebral infarct volume ratio ([3]; iv 1.0 + 2.5 (mg/kg + mg/kg/h)): 8.01 ± 6.66 %
- Cerebral infarct volume ratio ([3]; iv 1.0 + 2.5 (mg/kg + mg/kg/h), listed as polypeptide 2): 8.01±6.66%

Substance: Enoxaparin
- Thrombus inhibitory rate Dry weight ([1]; iv 50 U + 150 U (U/kg+U/kg/h)): 10 ± 4.2%
- Thrombus inhibitory rate Wet weight ([1]; iv 50 U + 150 U (U/kg+U/kg/h)): 40 ± 5.7%
- Thrombus weight Dry weight ([1]; iv 50 U + 150 U (U/kg+U/kg/h)): 2.3 ± 2.1 mg
- Thrombus weight Wet weight ([1]; iv 50 U + 150 U (U/kg+U/kg/h)): 3.9 ± 4.0 mg
- TT ([2]; iv 50 U + 150 U, Administration 30 min): >180 s
- TT ([2]; iv 50 U + 150 U, Administration 60 min): >180 s
- TT ([2]; iv 50 U + 150 U, Administration 90 min): 18.9 S
- TT ([2]; iv 50 U + 150 U, Before administration): 20.5 S
- TT ([2]; iv 50 U + 150 U, Termination 60 min): 21.0 S
- TT ([2]; iv 50 U + 150 U, Termination 120 min): 29.0 S
- TT ([2]; iv 50 U + 150 U, Termination 180 min): 24.0 S
- neurological behaviors (neurobehavioral score, Longa) ([3]; iv 90 U/kg + 120 U/kg/h, 4 h after surgery): 0.63 ± 0.74
- neurological behaviors (neurobehavioral score, Longa) ([3]; iv 90 U/kg + 120 U/kg/h, 8 h after surgery): 0.88 ± 0.64
- neurological behaviors (neurobehavioral score, Longa) ([3]; iv 90 U/kg + 120 U/kg/h, 24 h after surgery): 1.38 ± 0.74
- Cerebral index ([3]; iv 90 U/kg + 120 U/kg/h): 0.6819 ± 0.0356%
- Cerebral infarct volume ratio ([3]; iv 90 U/kg + 120 U/kg/h): 10.22 ± 5.38 %
